Source: ChEMBL document CHEMBL3576862, “Peptidic inhibitors for in vitro pentamer formation of human papillomavirus capsid protein l1” (ACS Med Chem Lett, 2015)
The source made the active and inactive calls. The rule behind the calls is not given here.

Assays:
[1] = target: T1, Major capsid protein L1 (Human papillomavirus 16) (UniProt P03101); assay: Inhibition of GST-tagged HPV16 major capsid protein L1 pentamer formation at 1:100 ratio of pentamer to compound in presence of PPase by FPLC method
T1 sequence (whole entry): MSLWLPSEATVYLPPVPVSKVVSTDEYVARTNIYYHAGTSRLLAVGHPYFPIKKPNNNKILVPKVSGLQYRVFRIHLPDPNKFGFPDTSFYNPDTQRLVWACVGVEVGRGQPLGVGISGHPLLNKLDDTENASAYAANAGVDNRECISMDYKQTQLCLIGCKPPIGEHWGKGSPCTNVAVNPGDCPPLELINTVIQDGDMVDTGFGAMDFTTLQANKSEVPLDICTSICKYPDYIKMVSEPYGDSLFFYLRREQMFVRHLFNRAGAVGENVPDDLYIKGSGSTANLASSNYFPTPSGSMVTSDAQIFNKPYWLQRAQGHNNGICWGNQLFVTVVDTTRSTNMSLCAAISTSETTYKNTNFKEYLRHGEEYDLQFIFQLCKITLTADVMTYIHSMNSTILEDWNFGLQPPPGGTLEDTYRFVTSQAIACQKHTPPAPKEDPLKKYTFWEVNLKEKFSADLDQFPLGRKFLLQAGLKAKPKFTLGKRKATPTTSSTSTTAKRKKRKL

[2] = target: T1, Major capsid protein L1 (Human papillomavirus 16); assay: (§1) Inhibition of pentamer formation of GST-tagged HPV16 major capsid protein L1 assessed as increased L1-m peak formation incubated with compound after overnight PPase-mediated digestion by size-exclusion chromatography
[3] = target: T2, Major capsid protein L1 (Human papillomavirus 16, UniProt P03101); assay: as §1
T2 sequence (P03101 whole entry): T1 sequence (whole entry)

[4] = target: T1, Major capsid protein L1 (Human papillomavirus 16); assay: Inhibition of GST-tagged HPV16 major capsid protein L1 pentamer assembly assessed as reduction in pentamer assembly in presence of PPase by static light scattering method
[5] = target: T1, Major capsid protein L1 (Human papillomavirus 16); assay: Inhibition of GST-tagged HPV16 major capsid protein L1 pentamer assembly assessed as reduction in pentamer assembly at 1:50 ratio of pentamer to compound in presence of PPase by static light scattering method
[6] = target: T1, Major capsid protein L1 (Human papillomavirus 16); assay: Inhibition of GST-tagged HPV16 major capsid protein L1 pentamer assembly assessed as size distribution of hydrodynamic diameter of pentamer assembly in presence of PPase by dynamic light scattering method (reference value: 14.9 nanometer)
[7] = target: T2, Major capsid protein L1; assay: Binding affinity to GST-tagged HPV16 major capsid protein L1 using CY3-labeled compound by FRET assay
[8] = target: T1, Major capsid protein L1 (Human papillomavirus 16); assay: Binding affinity to GST-tagged HPV16 major capsid protein L1 assessed as increase in thermal stability by measuring melting temperature at 1:100 ratio of pentamer to compound by UV cloud point measurement assay
[9] = target: T1, Major capsid protein L1 (Human papillomavirus 16); assay: Inhibition of pentamer formation of GST-tagged HPV16 major capsid protein L1 assessed as increased L1-m peak formation incubated with compound after overnight PPase-mediated digestion and measured after dialysis by dynamic light scattering method
[10] = target: T1, Major capsid protein L1 (Human papillomavirus 16); assay: Inhibition of GST-tagged HPV16 major capsid protein L1 pentamer assembly assessed as size distribution of hydrodynamic diameter of pentamer assembly in presence of PPase measured after dialysis by dynamic light scattering method and transmission electron microscopy
[11] = target: T3, Major capsid protein L1 (human papillomavirus 58) (UniProt P26535); assay: Inhibition of GST-tagged HPV58 major capsid protein L1 pentamer formation at 1:100 ratio of pentamer to compound in presence of PPase by FPLC method
T3 sequence (whole entry): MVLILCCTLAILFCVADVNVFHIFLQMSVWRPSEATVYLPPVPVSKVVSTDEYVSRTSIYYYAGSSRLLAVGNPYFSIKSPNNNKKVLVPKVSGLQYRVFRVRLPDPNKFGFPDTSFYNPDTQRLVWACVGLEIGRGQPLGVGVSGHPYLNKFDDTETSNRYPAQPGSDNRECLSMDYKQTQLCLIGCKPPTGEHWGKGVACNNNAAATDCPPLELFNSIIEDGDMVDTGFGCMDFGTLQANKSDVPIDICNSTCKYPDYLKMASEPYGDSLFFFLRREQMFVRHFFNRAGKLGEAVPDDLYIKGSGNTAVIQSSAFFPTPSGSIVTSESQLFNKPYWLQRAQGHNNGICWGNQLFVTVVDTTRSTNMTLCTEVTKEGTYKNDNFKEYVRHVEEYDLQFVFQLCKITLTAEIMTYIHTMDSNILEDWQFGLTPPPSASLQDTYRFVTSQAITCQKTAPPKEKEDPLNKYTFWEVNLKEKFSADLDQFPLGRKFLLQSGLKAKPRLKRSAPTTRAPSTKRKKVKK

[12] = target: T4, Major capsid protein L1 (human papillomavirus 18) (UniProt P06794); assay: Inhibition of GST-tagged HPV18 major capsid protein L1 pentamer formation at 1:100 ratio of pentamer to compound in presence of PPase by FPLC method
T4 sequence (whole entry): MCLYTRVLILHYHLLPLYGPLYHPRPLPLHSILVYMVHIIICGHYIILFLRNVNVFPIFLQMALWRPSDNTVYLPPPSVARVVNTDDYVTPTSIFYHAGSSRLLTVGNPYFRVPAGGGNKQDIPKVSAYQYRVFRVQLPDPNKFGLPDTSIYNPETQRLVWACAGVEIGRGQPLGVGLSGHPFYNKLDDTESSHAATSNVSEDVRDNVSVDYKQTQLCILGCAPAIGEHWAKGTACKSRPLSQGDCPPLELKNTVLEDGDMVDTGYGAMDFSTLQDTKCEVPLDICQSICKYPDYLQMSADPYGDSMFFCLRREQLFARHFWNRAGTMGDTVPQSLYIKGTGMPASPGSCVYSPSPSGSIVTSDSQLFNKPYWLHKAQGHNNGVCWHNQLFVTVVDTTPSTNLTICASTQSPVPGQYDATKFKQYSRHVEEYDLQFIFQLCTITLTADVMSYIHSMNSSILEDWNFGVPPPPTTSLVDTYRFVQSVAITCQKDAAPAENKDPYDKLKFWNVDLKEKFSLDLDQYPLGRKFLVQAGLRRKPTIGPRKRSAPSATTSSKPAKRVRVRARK

[13] = target: T1, Major capsid protein L1 (Human papillomavirus 16); assay: Binding affinity to GST-tagged HPV16 major capsid protein L1 by FRET assay
[14] = target: T1, Major capsid protein L1 (Human papillomavirus 16); assay: Binding affinity to GST-tagged HPV16 major capsid protein L1 pentamer formation at 1:100 ratio of pentamer to compound by CD spectroscopy method

For H-DLDQSPLGRKFLLQ-OH, the inhibition [1] was “inactive”.

In the case of `CC(C)C[C@H](NC(=O)[C@H](CC(C)C)NC(=O)[C@H](Cc1ccccc1)NC(=O)[C@H](CCCCN)NC(=O)[C@H](CCCNC(=N)N)NC(=O)CNC(=O)[C@H](CC(C)C)NC(=O)[C@@H]1CCCN1C(=O)[C@H](Cc1ccccc1)NC(=O)[C@H](CCC(N)=O)NC(=O)[C@H](CC(=O)O)NC(=O)[C@H](CC(C)C)NC(=O)[C@@H](N)CC(=O)O)C(=O)N[C@@H](CCC(N)=O)C(=O)O`, the inhibition [2] is reported as “Dose-dependent effect”, the IC50 [3] is reported as 0.0194 µM and the inhibition [4] is reported as “Dose-dependent effect”. For the same compound, the inhibition [5] was “Active”, the Activity [6] was 9.4 nm and the Kd [7] was 0.6 µM. The Activity [8] was “Active”, the Activity [9] was “inactive” and the Activity [10] was “inactive”. The inhibition [11] was “Active” and the inhibition [12] was “inactive”.

In the case of `CC(C)C[C@H](NC(=O)CNC(=O)[C@H](C)NC(=O)[C@H](CCC(N)=O)NC(=O)[C@H](CC(C)C)NC(=O)[C@H](CC(C)C)NC(=O)[C@H](Cc1ccccc1)NC(=O)[C@H](CCCCN)NC(=O)[C@H](CCCNC(=N)N)NC(=O)CNC(=O)[C@H](CC(C)C)NC(=O)[C@@H]1CCCN1)C(=O)N[C@@H](CCCCN)C(=O)N[C@@H](C)C(=O)N[C@@H](CCCCN)C(=O)O`, the IC50 [3] is reported as 0.0481 µM.

In the case of H-SGFLRQLGFDKLQD-OH, the inhibition [2] is reported as “inactive”, the Activity [13] is reported as “inactive” and the Activity [8] is reported as “inactive”.

In the case of H-DLDQFPLGR-OH, the inhibition [1] is reported as “inactive”.

With H-QFPLGRKFL-OH the inhibition [1] was “Active”.

For H-DLDQFPLGAKFLLQ-OH, the inhibition [1] was “inactive” and the Activity [14] was “inactive”.

H-PLGRKFL-OH was tested, and the inhibition [1] was “inactive”.

In the case of H-DLDQFPAGRKFLLQ-OH, the inhibition [1] is reported as “inactive” and the Activity [14] is reported as “inactive”.

For H-DLDQFPSSSKFLLQ-OH, the inhibition [1] was “inactive” and the Activity [14] was “inactive”.

`CC(C)C[C@H](NC(=O)[C@H](CC(C)C)NC(=O)[C@H](Cc1ccccc1)NC(=O)[C@H](CCCCN)NC(=O)[C@H](CCCNC(=N)N)NC(=O)CNC(=O)[C@H](CC(C)C)NC(=O)[C@@H]1CCCN1C(=O)[C@H](Cc1ccccc1)NC(=O)[C@H](CCC(N)=O)NC(=O)[C@H](CC(=O)O)NC(=O)[C@H](CO)NC(=O)[C@@H](N)CC(=O)O)C(=O)N[C@@H](CCC(N)=O)C(=O)O` was tested, and the inhibition [1] was “inactive”.
